Results from publication PMC6711404 (Science signaling, 2017).
“And” between values parts separate entries of the source, which are not always exact repeats. Equal values may be shown once.

Experiments:
[1] = system: pRII (PKA-II signaling activity) in rat sensory neurons; assay type: cell-based; conditions: for IC50: read-out: IC50 on pRII signals induced by 5-HT
[2] = system: pRII (PKA-II signaling activity) in mouse sensory neurons; assay type: cell-based

O=C1CC[C@@]2(O)[C@H]3Cc4ccc(O)c5c4[C@@]2(CCN3CC2CC2)[C@H]1O5 [naltrexone]
Effect on 5-HT-induced pRII intensity [1]: no effect | Effect on basal pRII intensity [1]: no effect | Effect on baseline amount of pRII [2]: Neither fentanyl nor naltrexone altered

CCCCC[C@H](O)/C=C/[C@@H]1[C@H]2C/C(=C/CCCC(=O)O)O[C@H]2C[C@H]1O [PGI2, prostacyclin]
Neuron subgroups in which pRII intensity is increased [1]: predominately activated RIIβ(+) neurons | pRII response in Nav1.7-/- versus Nav1.7+/+ cultures [2]: the same

Cn1cc(C(=O)OCC2CCN(CCNS(C)(=O)=O)CC2)c2ccccc21 [GR113808]
Effect on 5-HT-induced pRII intensity [1]: blocked | IC50 [1]: 0.0086 µM

DAMGO
IC50 [1]: 0.321 µM | Inhibition of 5-HT-induced pRII: Nav1.7-/- versus wild-type neurons [2]: The IC50 to inhibit 5-HT-induced pRII was similar, but the maximum response was greater

NCCc1c[nH]c2ccc(O)cc12 [5-HT]
Neuron subgroups in which pRII intensity is increased [1]: predominately activated RIIβ(+) neurons | Numbers of RIIβ(+) neurons responsive to 5-HT [2]: 27.8 ± 1.3% and 19.1 ± 1.2% | Smaller sized sensory neurons with increased pRII signals [2]: 17% and 21% | pRII response in Nav1.7-/- versus Nav1.7+/+ cultures [2]: the maximum amplitude but not the EC50 of the pRII response to 5-HT was reduced

CTOP
Effect on 5-HT-induced pRII intensity [1]: did not affect | Effect on DAMGO inhibition of the 5-HT-induced increase in pRII [1]: partially | Effect on basal pRII intensity [1]: did not affect

8-bromoadenosine-3′,5′-cyclic monophosphorothioate, Sp-isomer, and acetoxymethyl ester [Sp-8-Br-cAMPS-AM]
pRII response in Nav1.7-/- versus Nav1.7+/+ cultures [2]: the same

C=C[C@@]1(C)CC(=O)[C@]2(O)[C@@]3(C)[C@@H](O)CCC(C)(C)[C@@H]3[C@H](O)[C@H](OC(C)=O)[C@@]2(C)O1 [Fsk, forskolin]
Neuron subgroups in which pRII intensity is increased [1]: all rat sensory neurons, both RIIβ(-) and RIIβ(+) neurons | Population of Fsk-responding cells [2]: 28% and 23% | pRII response in Nav1.7-/- versus Nav1.7+/+ cultures [2]: the same
